Test results published in patent US7709645B2, “Pyrrolo-pyridine kinase modulators” (SGX Pharmaceuticals, Inc., priority 2004, dated 2010).
Changes are numbered by the printed parent chain.

How the values were obtained:
[1] = molecular target: T1, Abl T315I kinase domain (unphosphorylated) (Mus musculus, UniProt P00520, T315I); assay: Abl_T315I Bioassay (c-Abl PK/LDH coupled enzyme assay); assay type: biochemical; settings: 10 μM ATP
T1 construct: purified and unphosphorylated T315I Abl kinase domain; made in house; host or cells: E. coli BL21(DE3) strains
T1 sequence (P00520 242-493 T315I limits assumed): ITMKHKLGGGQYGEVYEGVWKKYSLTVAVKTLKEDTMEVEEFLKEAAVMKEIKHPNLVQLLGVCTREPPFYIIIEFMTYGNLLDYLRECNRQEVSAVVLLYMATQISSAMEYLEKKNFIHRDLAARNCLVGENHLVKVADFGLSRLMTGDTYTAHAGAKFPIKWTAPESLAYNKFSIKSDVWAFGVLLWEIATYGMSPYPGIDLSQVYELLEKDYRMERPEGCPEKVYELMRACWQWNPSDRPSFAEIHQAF
Description: Although the first of these examples uses the kinase domain of a mutant form of Abl T315I (“Abl T315I KD”), the kinase assays may use various forms of mutant and wild type enzymes, including, for example, the entire protein, the kinase domain, or a portion thereof (e.g. Abl Y393F). The kinases used in the assays may also be of varying phosphorylation states. In the c-Abl example, a mutant kinase at a zero phosphorylation state was used.
In the c-Abl Pyruvate Kinase (PK)/Lactate Dehydrogenase (LDH) Coupled Assay the protein kinase dependant phosphorylation of a substrate peptide was coupled to the oxidation of NADH. The oxidation of NADH to NAD+ was detected by monitoring a decrease in absorbance at 340 nm.
Materials: Abl substrate peptide=EAIYAAPFAKKK (SEQ ID NO:1)-OH (Biopeptide, San Diego, Calif.); βNADH (Sigma Cat#N-8129, FW=709.4); 2M MgCl2; 1M HEPES buffer, pH 7.5; Phosphoenolpyruvate (PEP) (Sigma Cat#P-7002, FW=234); Lactate dehydrogenase (LDH) (Worthington Biochemical Cat#2756); Pyruvate Kinase (PK) (Sigma Cat#P-9136); ATP (Sigma Cat#A-3377, FW=551); Greiner 384-well UV star plate; and purified and unphosphorylated T315I Abl kinase domain.
Stock Solutions: 10 mM NADH (7.09 mg/ml in miliQH2O) made fresh daily; 10 mM Abl substrate peptide (13.4 mg/ml in miliQH2O) stored at −20° C.; 100 mM HEPES buffer, pH 7.5 (5 ml 1M stock+45 ml miliQH2O); 100 mM MgCl2 (5 ml 2M MgCl2+95 ml dH2O); 100 mM PEP (23.4 mg/ml in dH2O) stored at −20° C.; 10 mM ATP (5.51 mg/ml in dH2O) stored at −20° C. (diluted 50 μl into total of 10 ml miliQH2O daily=50 μM ATP working stock); 1000 U/ml PK (U/mg varies with lot) flash-frozen under liquid N2 and stored at −80° C.; and 1000 U/ml LDH (U/mg varies with lot) flash-frozen under liquid N2 and stored at −80° C.
Standard Assay Setup for 384-well format (50 μl reaction): 300 μM NADH; 10 mM MgCl2; 2 mM PEP; 45 U/ml PK; 60 U/ml LDH; 200 μM Abl substrate peptide; 2.5 μl test compound (in DMSO); 2 μg/ml Abl kinase domain; 10 μM ATP; 100 mM HEPES buffer. Positive controls contained DMSO with no test compound. Negative controls contained 5 μl of 0.5M EDTA (50 mM in the assay). The dephosphorylated form of the c-Abl T315I mutant was used in the biochemical screening assays. The kinase reaction was initiated at time t=0 by the addition of ATP.
Activity was measured by following the time-dependent loss of NADH by absorbance spectroscopy at 340 nm. The linear portion of the resulting progress curve was then analyzed by linear regression to get the activity in absorbance units/time, reported as the slope of that best fit line (moles/unit time can be calculated from using molar extinction coefficient for NADH at 340 nm, 6250M^−1 cm^−1).
Data was evaluated using the equation: Z′=1−[3*(σ++σ−)/|μ+−μ−|](Zhang, et al., 1999 J Biomol Screening 4(2) 67-73), where μ denotes the mean and σ the standard deviation. The subscript designates positive or negative controls. The Z′ score for a robust screening assay should be ≧0.50. The typical threshold=μ+−3*σ+. Any value that falls below the threshold was designated a “hit”.
Dose response was analyzed using the equation: y=min+{(max−min)/(1+10^[compound]−logIC50)}, where y is the observed initial slope, max=the slope in the absence of inhibitor, min=the slope at infinite inhibitor, and the IC50 is the [compound] that corresponds to ½ the total observed amplitude (Amplitude=max−min).
To measure modulation, activation, or inhibition of Abl KD, a test compound was added to the assay at a range of concentrations. Inhibitors may inhibit Abl KD activity at an IC50 in the micromolar range, the nanomolar range, or, for example, in the subnanomolar range.
An open-reading frame for c-Abl was amplified from a Mus musculus (mouse) cDNA library prepared from freshly harvested mouse liver using a commercially available kit (Invitrogen) by PCR using the following primers: […]
The c-Abl T315I KD (kinase domain) was purified as follows. […]

[2] = molecular target: T2, T315I mutant form of BCR-ABL in Ba/F3 cells (Homo sapiens, UniProt P00519, T315I); assay: Abl_T315I p-ELISA Cellular Assay (BCR-ABL phospho-ELISA); assay type: cell-based; settings: 60-120 minutes incubation
T2 construct: expressed in transfected cells; host or cells: Ba/F3 cells; the other entry of the earlier key: BCR (P11274, Breakpoint cluster region protein)
T2 sequence (P00519 242-493 T315I limits assumed): T1 sequence (P00520 242-493 T315I limits assumed) with S95N
Procedure: Cells (Ba/F3 cells transfected with WT BCR-ABL, other kinases, or T315I, Y253F, M351T, E255K, or other mutant forms of BCR-ABL) were grown in the absence of IL-3 at least ½ week before the assay. The day before assay, the cells were fed with fresh media so that at the time of assay the cells were in log phase. Ba/F3 cells that had been grown in the absence of IL-3 for at least ½ week were resuspended in RPMI 1640 so that each well of a 96-well plate would contain approximately 200,000 cells. Cells were distributed in a 96-well plate containing serially diluted concentrations of test compounds. Cells were typically incubated with or without test compounds for 60-120 minutes at 5% CO2, 37° C. The incubation was performed with or without other additives such as 10% FCS or 50% human plasma. After incubation of compounds, lysis buffer was added and incubated for 10-15 minutes; the lysate was cleared by centrifugation.
To make the ELISA plate, commercially available Anti-ABL antibodies (e.g. (Ab-3, Calbiochem OP20) were prepared at a concentration of 0.125 μg/ml in coating buffer (0.1M Na-carbonate, pH 9.5), and plated at 10 ml per plate (12.5 μl 100 μg/ml Ab/10 ml). In a high binding multi-well plate, 100 μl Ab in coating buffer were added to each well, and each plate was covered with a plate seal and incubated overnight at 4° C.
Excess antibody was removed and the ELISA plate was washed 3-4 times with 200 μl of wash buffer (0.05% Tween in PBS, pH 7.4). 150 μl of lysate (see above) were transferred to the ELISA plate. Plates were sealed and incubated 2 hours at room temperature. The detection antibody (e.g. HRP conjugated anti-pTyr or unconjugated α-p-Y 4G10, Upstate) was prepared in assay diluent. The antibody was diluted 1:1000 (stock=2 μg/μl, 200 μg in 100 μl; f.c.=2 μg/ml) in assay diluent and 10 ml of diluted antibody per plate were added. The lysate was removed from the ELISA plates, and wells were washed four times with 200 μl of wash buffer per well. 100 μl of detection antibody was added to each well; the plate was covered, and incubated 1 hr at room temperature (21° C.). Excess detection antibody was removed from the ELISA plates, and the wells were washed four times with 200 μl of wash buffer per well.
If necessary, (i.e. for unconjugated anti-pTyr antibody) secondary antibody (goat anti-rabbit HRP) was diluted 1:3000 in assay diluent (3.33 μl per 10 ml diluent) and added at 10 ml of diluted antibody per plate. Excess secondary antibody was removed from the ELISA plate, and the plate was washed four times with 200 μl per well of wash buffer.
Substrate Reagent A and Substrate Reagent B (Pierce Cat#37070 SuperSignal ELISA Pico Chemiluminescent Substrate) were added immediately before use (10 ml resultant solution per plate). 100 μl substrate were added per well, mixed for 1 minute, and chemiluminescent signal was measured with a luminometer.

SMILES	IC50 [1] [nM]	IC50 [2] [nM]
COc1ccccc1-c1c[nH]c2ncc(-c3cccc(C(=O)N(C)CCN(C)C)c3)cc12 [AE23]	< 50	
COc1ccccc1-c1c[nH]c2ncc(-c3c[nH]cn3)cc12 [AE19]	< 50	100 to 1000
CCc1ccccc1-c1c[nH]c2ncc(-c3ccnc(F)c3)cc12 [AE18]	< 50	100 to 1000
CCc1ccccc1-c1c[nH]c2ncc(-c3cncc(C(=O)N(C)C)c3)cc12 [AE15]	< 50	100 to 1000
Oc1cccc(-c2cnc3[nH]cc(-c4ccoc4)c3c2)c1 [AE47]	< 50	
COc1ccccc1-c1c[nH]c2ncc(-c3ccc4c(c3)C(=O)NCC(=O)N4)cc12 [AE12]	< 50	
COc1ccccc1-c1c[nH]c2ncc(-c3cccc(C(=O)N4CCC(CO)CC4)c3)cc12 [AE6]	< 50	< 100
COc1ccccc1-c1c[nH]c2ncc(-c3cccc(C(=O)N4CCN(C(C)C)CC4)c3)cc12 [AE7]	< 50	< 100
Oc1cccc(-c2cnc3[nH]cc(Sc4ccccc4)c3c2)c1 [AE51]	50 to 200	
COc1ccccc1-c1c[nH]c2ncc(-c3cccc(C(=O)N4CCN(CCN5CCOCC5)CC4)c3)cc12 [AE24]	< 50	
COc1cccc(OC)c1-c1c[nH]c2ncc(-c3cccc(C(=O)N4CCOCC4)c3)cc12 [AE37]	< 50	< 100
CCOc1ccccc1-c1c[nH]c2ncc(-c3cncc(C(=O)N(C)C)c3)cc12 [AE16]	< 50	100 to 1000
COc1ccccc1-c1c[nH]c2ncc(-c3ccc(O)c(C(=O)N(C)CCN(C)C)c3)cc12 [AE25]	< 50	< 100
COc1ccccc1-c1c[nH]c2ncc(-c3csc(C(=O)N4CCN(C)CC4)c3)cc12 [AE4]	< 50	100 to 1000
CCOc1ccccc1-c1c[nH]c2ncc(-c3cncc(C(=O)NC)c3)cc12 [AE17]	< 50	
O=C(c1cccc(-c2cnc3[nH]cc(-c4ccccc4F)c3c2)c1)N1CCOCC1 [AE29]	< 50	100 to 1000
COc1ccccc1-c1c[nH]c2ncc(-c3cncc(C(=O)N(C)CCN(C)C)c3)cc12 [AE5]	< 50	< 100
